19 molecules from ChEMBL document CHEMBL4020795, “One-pot microwave assisted stereoselective synthesis of novel dihydro-2'H-spiro[indene-2,1'-pyrrolo-[3,4-c]pyrrole]-tetraones and evaluation of their antimycobacterial activity and inhibition of AChE” (Bioorg Med Chem Lett, 2017) can be followed below.

For test [1], the system named is Mycobacterium tuberculosis. In words: Antimicrobial activity against Mycobacterium tuberculosis H37Rv by Alamar blue assay. Type of test: functional.
Test [2] has as its system Vero. The test is described as follows: Cytotoxicity against monkey Vero cells assessed as decrease in cell viability after 72 hrs by MTT assay. The test is classed as cell-based. To be noted: Chlorocebus sabaeus.
The target in test [3] is Acetylcholinesterase (Homo sapiens, UniProt P22303). The test is described as follows: Inhibition of AChE (unknown origin) using […] as substrate preincubated for 15 mins followed by substrate addition measured every minute by spectrophotometric analysis.
The subject of test [4] is Mycobacterium tuberculosis. In words: Potency index, ratio of cycloserine IC50 to test compound IC50 for Mycobacterium tuberculosis H37Rv. Type of test: functional.
Test [5] has as its system Mycobacterium tuberculosis. In words: Potency index, ratio of pyrimethamine IC50 to test compound IC50 for Mycobacterium tuberculosis H37Rv. The test is classed as functional.

The structures appear in SMILES notation. Converted amounts (≈) assume the structure as drawn. Where only a bound is given, the exact number is not on record here.

Chain of Acetylcholinesterase (P22303 whole entry): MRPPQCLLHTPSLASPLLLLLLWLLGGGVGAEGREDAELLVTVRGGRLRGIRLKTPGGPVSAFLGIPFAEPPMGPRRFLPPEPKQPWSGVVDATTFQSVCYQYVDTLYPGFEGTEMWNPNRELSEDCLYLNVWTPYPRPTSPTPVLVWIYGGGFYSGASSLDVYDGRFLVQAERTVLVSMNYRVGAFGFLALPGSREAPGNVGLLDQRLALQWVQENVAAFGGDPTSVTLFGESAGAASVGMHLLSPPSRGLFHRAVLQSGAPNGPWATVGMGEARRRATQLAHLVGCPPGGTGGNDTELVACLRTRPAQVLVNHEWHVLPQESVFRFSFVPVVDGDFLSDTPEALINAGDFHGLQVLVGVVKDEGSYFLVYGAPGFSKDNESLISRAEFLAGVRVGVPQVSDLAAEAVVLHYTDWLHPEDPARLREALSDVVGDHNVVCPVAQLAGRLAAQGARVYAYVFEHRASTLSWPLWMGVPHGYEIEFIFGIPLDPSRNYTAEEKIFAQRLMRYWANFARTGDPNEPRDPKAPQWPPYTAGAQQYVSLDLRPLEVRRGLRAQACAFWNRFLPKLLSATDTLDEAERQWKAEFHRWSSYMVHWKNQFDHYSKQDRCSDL

For the molecule `CN1CC2C(=O)N(C3CCCCC3)C(=O)C2C12C(=O)c1ccccc1C2=O` (stereo not given), the 50% inhibitory concentration (IC50) in test [1] is 15.9 µM; in test [2], > 6.25 µg/mL; in test [3], 4.12 µM. The molecule also came in with a 90% effect concentration (IC90) in test [1] of 34.6 µM. Moreover, the lowest concentration to inhibit growth in test [1] (MIC) was 100 µM (≈ 36.6 µg/mL).
For the molecule `CC[C@@H](CO)NCCN[C@@H](CC)CO` [ETHAMBUTOL], in test [1], the IC50 was < 1.56 µM and the minimum inhibitory concentration (MIC) came out at 12.5 µM (≈ 2.55 µg/mL). Also, in test [2], the 50% inhibitory concentration (IC50) is > 6.25 µg/mL.
In test [1], `NCC[C@H](O)C(=O)N[C@@H]1C[C@H](N)[C@@H](O[C@H]2O[C@H](CN)[C@@H](O)[C@H](O)[C@H]2O)[C@H](O)[C@H]1O[C@H]1O[C@H](CO)[C@@H](O)[C@H](N)[C@H]1O` [AMIKACIN] gave an IC90 of 0.08 µM and an MIC of 0.16 µM (≈ 0.0937 µg/mL). Further, in test [2], the concentration for half-maximal inhibition (IC50) is > 6.25 µg/mL.
Consider `CCc1nc(N)nc(N)c1-c1ccc(Cl)cc1` [PYRIMETHAMINE], for which the MIC in test [1] turned out to be 100 µM (≈ 24.9 µg/mL). In addition, the concentration for half-maximal inhibition (IC50) in test [2] was > 6.25 µg/mL.
Turning to `CN1CC2C(=O)N(c3ccccc3)C(=O)C2C12C(=O)c1ccccc1C2=O` (stereo not given), in test [1], the half-maximal inhibitory concentration (IC50) was 13.2 µM, the concentration for an effect of 90% (IC90) is 25.9 µM and 50 µM (≈ 18 µg/mL) was the least that counted as inhibitory (MIC). In test [2], the IC50 is > 6.25 µg/mL. Besides, the IC50 in test [3] is 69.8 µM.
Regarding `CCc1ccc(N2C(=O)C3CN(C)C4(C(=O)c5ccccc5C4=O)C3C2=O)cc1` (stereo not given), in test [1], the IC50 amounted to 21.9 µM, the 90% effect level (IC90) was put at 47.9 µM and 50 µM (≈ 19.4 µg/mL) was the least that counted as inhibitory (MIC). Also, the 50% inhibitory concentration (IC50) in test [2] was > 6.25 µg/mL. For the same molecule, in test [3], it took 44.6 µM to reach half-maximal inhibition (IC50).
On the same counts, the results for `CN1CC2C(=O)N(Cc3ccccc3)C(=O)C2C12C(=O)c1ccccc1C2=O` (stereo not given) are 55 µM, 96.4 µM, 100 µM (≈ 37.4 µg/mL), > 6.25 µg/mL and 41.2 µM.
With `COc1ccccc1N1C(=O)C2CN(C)C3(C(=O)c4ccccc4C3=O)C2C1=O` (stereo not given), in test [1], 28.3 µM corresponded to half-maximal inhibition (IC50), it took 46.5 µM to reach the 90% level (IC90) and the MIC came to 50 µM (≈ 19.5 µg/mL). Also, the IC50 in test [2] is > 6.25 µg/mL. The IC50 in test [3] came to 11.1 µM.
On the same counts, the results for `CN1CC2C(=O)N(c3ccc(F)cc3)C(=O)C2C12C(=O)c1ccccc1C2=O` (stereo not given) are 2.17 µM, 7.86 µM, 50 µM (≈ 18.9 µg/mL), > 6.25 µg/mL and 50.1 µM.
For `CN1CC2C(=O)N(c3ccc([N+](=O)[O-])cc3)C(=O)C2C12C(=O)c1ccccc1C2=O` (stereo not given), in test [1], the IC50 amounted to 47.2 µM, it took 66.5 µM to reach the 90% level (IC90) and the MIC worked out at 100 µM (≈ 40.5 µg/mL). Further, the concentration for half-maximal inhibition (IC50) in test [2] is > 6.25 µg/mL. In test [3], this molecule displayed an IC50 of 6.6 µM.
Consider `Cc1ccc(N2C(=O)C3CN(C)C4(C(=O)c5ccccc5C4=O)C3C2=O)cc1` (stereo not given), for which, in test [1], the IC50 came out at 40 µM, the 90% effect level (IC90) was put at 71.9 µM and the minimal inhibitory concentration (MIC) stood at 100 µM (≈ 37.4 µg/mL). Besides, in test [2], the IC50 is > 6.25 µg/mL. The IC50 in test [3] came out at 7.34 µM.
`CC(C)c1ccc(N2C(=O)C3CN(C)C4(C(=O)c5ccccc5C4=O)C3C2=O)cc1` (stereo not given): the concentration for half-maximal inhibition (IC50) in test [1] is 28.5 µM; in test [2], > 6.25 µg/mL; in test [3], 12.2 µM. Further, in test [1], the 90% effect level (IC90) was put at 52.4 µM. In test [1], this molecule yielded an MIC of 100 µM (≈ 40.2 µg/mL).
In test [1], `CN1CC2C(=O)N(c3cccc(F)c3)C(=O)C2C12C(=O)c1ccccc1C2=O` (stereo not given) returned an IC50 of 28.6 µM, an IC90 of 47.7 µM and a minimal inhibitory concentration (MIC) of 50 µM (≈ 18.9 µg/mL). Besides, in test [2], the half-maximal inhibitory concentration (IC50) was > 6.25 µg/mL. This molecule also yielded a concentration for half-maximal inhibition (IC50) in test [3] of 80.1 µM.
In test [1], `NNC(=O)c1ccncc1` [ISONIAZID] showed an IC90 of 0.29 µM and a minimal inhibitory concentration (MIC) of 0.31 µM (≈ 0.0425 µg/mL). In addition, the half-inhibitory concentration (IC50) in test [2] is > 6.25 µg/mL.
Consider `CN1C(=O)C2CN(C)C3(C(=O)c4ccccc4C3=O)C2C1=O` (stereo not given), for which, in test [1], half-maximal inhibition (IC50) was put at 22.9 µM, the concentration for an effect of 90% (IC90) was determined as 34.6 µM and the MIC came to 50 µM (≈ 14.9 µg/mL). In addition, the half-maximal inhibitory concentration (IC50) in test [2] was > 6.25 µg/mL. This molecule also came in with an IC50 in test [3] of 2.1 µM.
The molecule `N[C@@H]1CONC1=O` [CYCLOSERINE] gave a minimal inhibitory concentration (MIC) in test [1] of 25 µM (≈ 2.55 µg/mL). The IC50 in test [2] was > 6.25 µg/mL.
On to `CN1CC2C(=O)N(c3ccc(Br)cc3)C(=O)C2C12C(=O)c1ccccc1C2=O` (stereo not given), for which the figures for the IC50 in test [1], in test [2] and in test [3] were 11.1 µM, > 6.25 µg/mL and 73.3 µM, respectively. In test [1], this molecule returned a 90% effect concentration (IC90) of 22 µM. In addition, the minimal inhibitory concentration (MIC) in test [1] was 50 µM (≈ 22 µg/mL).
Regarding `CN1CC2C(=O)N(c3ccc(Cl)cc3)C(=O)C2C12C(=O)c1ccccc1C2=O` (stereo not given), the IC50 in test [1] is 1.3 µM; in test [2], > 6.25 µg/mL; in test [3] it was 27.9 µM. In test [1], the concentration for an effect of 90% (IC90) amounted to 5.3 µM. In test [1], this molecule came in with an MIC of 25 µM (≈ 9.87 µg/mL). The “Ratio IC50” value in test [4] was determined as 12; in test [5] it was 37.
As for `COc1ccc(N2C(=O)C3CN(C)C4(C(=O)c5ccccc5C4=O)C3C2=O)cc1` (stereo not given), the values for the concentration for half-maximal inhibition (IC50) in test [1], in test [2] and in test [3] were 17.2 µM, > 6.25 µg/mL and 0.78 µM, respectively. In test [1], this molecule came in with an IC90 of 35.5 µM. This molecule gave a minimum inhibitory concentration (MIC) in test [1] of 50 µM (≈ 19.5 µg/mL).
